One compound from patent US7270837B2, “Anti-inflammatory cranberry flavonol extract preparations” (Rutgers, The State University of New Jersey, priority 2003, dated 2007) can be followed below.

“Also recorded” adds a separate entry of the source.

The test system of this experiment is TPA-induced edema of mouse ears. Nature of the experiment: TPA-induced mouse ear edema assay of quercetin-3-O-(6″-benzoyl)-β-galactoside (Example 3). The experiment is classed as in vivo, mouse (CD-1 female). Conditions: topical, purified compound. As to the method:
The anti-inflammatory activity of quercetin-3-O-(6″-benzoyl)-β-galactoside (Peak 19) was tested in vivo with the 12-O-tetradecanoylphorbol-13-acetate (TPA)-induced mouse ear edema assay. Each of the treatments was topically applied to both ears of at least five CD-1 female mice. Treatments included application of either acetone or curcumin controls or the test extract in 20 μl of acetone twenty minutes prior to application of 1.5 nmol of TPA in acetone. After 7 hours post-treatment, mice were sacrificed and 6 mm diameter ear punch biopsies were taken and weighed. The ratio of the difference in the weight of ear punches between TPA treated groups receiving pretreatments of acetone and the test extract, respectively, to the difference in the weight of ear punches between acetone pretreated groups subsequently treated with TPA and acetone, respectively, indicates the degree of anti-inflammatory activity of the test extract.

In the case of `O=C(OC[C@H]1O[C@@H](Oc2c(-c3ccc(O)c(O)c3)oc3cc(O)cc(O)c3c2=O)[C@H](O)[C@@H](O)[C@H]1O)c1ccccc1` [quercetin-3-O-(6″-benzoyl)-β-galactoside], the “anti-inflammatory activity in the TPA-induced mouse ear edema assay (in words)” value is recorded as “potent anti-inflammatory agent; also recorded: highly effective inhibitor of inflammation”.
